The target of the test is ATX (human His-tagged) (Homo sapiens (Human), UniProt Q13822). Nature of the test: Human ATX enzyme inhibition assay (fluorescence quenching, MR121 substrate). Type of test: biochemical. The conditions noted are these: 30 nM ATX, 1 μM MR121 substrate, 30° C., pH 8.0. The method in brief: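 Tris-HCl buffer at pH 8.0 contained 140 mM NaCl, 5 mM KCl, 1 mM each CaCl2 and MgCl2, and 0.01% Triton X-100. The MR121 substrate (1 μM final) was incubated with enzyme for 15 min at 30 °C, and activity was read by fluorescence quenching.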

Our source for the IC50 values is patent publication US10669268B2, “Bicyclic derivatives” (Hoffmann-La Roche Inc., priority 2012, dated 2020).

The IC50 is the concentration needed to halve the response being measured. Low values mean greater potency, high ones weaker potency.

As for `O=C(CCc1cc(Cl)cc(Cl)c1)N1C[C@H]2CN(Cc3ccc4[nH]c(=O)oc4c3)C[C@H]2C1` [Example 6.04], the midpoint of inhibition, the IC50, lay at 282 nM.

Consider `O=C(/C=C/c1ccc(OC(F)(F)F)cc1F)N1CC[C@@H]2CN(C(=O)c3ccc4[nH]nnc4c3)C[C@@H]2CC1` [Example 15.39], for which the concentration for half-maximal inhibition (IC50) turned out to be 5 nM. This IC50 lies about 56-fold lower than the previous one.

`O=C(c1ccc2[nH]nnc2c1)N1C[C@H]2CN(C(=O)C3CCN(c4ccc(Cl)cc4)CC3)C[C@@H]2C1` [Example 19.23, [(3aR,6aR)-5-[1-(4-chlorophenyl)piperidine-4-carbonyl]-1,3,3a,4,6,6a-hexahydropyrrolo[3,4-c]pyrrol-2-yl]-(1H-benzotriazol-5-yl)methanone] showed a half-maximal inhibitory concentration (IC50) of 25 nM.

On to `COc1ccc(/C=C/C(=O)N2CC[C@@H]3CN(C(=O)c4ccc5[nH]nnc5c4)C[C@@H]3CC2)cc1` [Example 15.09], for which the IC50 stood at 42 nM.

Turning to `CS(=O)(=O)c1cc(Cl)cc(COC(=O)N2C[C@@H]3CN(C(=O)N4CCc5[nH]nnc5C4)C[C@H]3C2)c1` [Example 4.34, (3aS,6aS)-5-(1,4,6,7-tetrahydro-[1,2,3]triazolo[4,5-c]pyridine-5-carbonyl)-hexahydro-pyrrolo[3,4-c]pyrrole-2-carboxylic acid 3-chloro-5-methanesulfonyl-benzyl ester], 19 nM corresponded to half-maximal inhibition (IC50).

In turn, `O=C(OCc1ccc(OC(F)(F)F)c(F)c1)N1C[C@@H]2CN(C(=O)c3ccc4[nH]nnc4c3)C[C@H]2C1` [Example 4.43, (3aS,6aS)-5-(1H-benzotriazole-5-carbonyl)-hexahydro-pyrrolo[3,4-c]pyrrole-2-carboxylic acid 3-fluoro-4-trifluoromethoxy-benzyl ester] came in with an IC50 of 4 nM.

Compound `O=C(COc1ccccc1-n1cccc1)N1C[C@@H]2CN(C(=O)c3ccc4[nH]nnc4c3)C[C@H]2C1` [Example 15.92] gave a 50% inhibitory concentration (IC50) of 249 nM.

The compound `CC(C)c1ccccc1CCC(=O)N1CC[C@@H]2CN(C(=O)c3ccc4[nH]nnc4c3)C[C@@H]2CC1` [Example 17.08, 1-[(3aS,8aR)-2-(1H-benzotriazole-5-carbonyl)-octahydro-pyrrolo[3,4-d]azepin-6-yl]-3-(2-isopropyl-phenyl)-propan-1-one] displayed an IC50 of 16 nM.

`O=C(OCc1cc(Cl)cc(Cl)c1)N1C[C@@H]2CN(C(=O)c3ccc4[nH]nnc4c3)C[C@@H]2C1` [Example 1.03, (3aR,6aS)-3,5-dichlorobenzyl 5-(1H-benzo[d][1,2,3]triazole-5-carbonyl)hexahydropyrrolo[3,4-c]pyrrole-2(1H)-carboxylate]: the IC50 was 25 nM. Compared with the last compound, the IC50 is about 1.6-fold higher.

Take `Cc1cc(COC(=O)N2C[C@@H]3CN(C(=O)[C@@H]4CCc5[nH]nnc5C4)C[C@H]3C2)c(C(C)C)cc1C#N` [Example 4.47, (3aS,6aS)-5-((R)-4,5,6,7-tetrahydro-1H-benzotriazole-5-carbonyl)-hexahydro-pyrrolo[3,4-c]pyrrole-2-carboxylic acid 4-cyano-2-isopropyl-5-methyl-benzyl ester]: it took 4 nM to reach half-maximal inhibition (IC50).

`O=C(CCc1ccc(OC(F)(F)F)cc1F)N1C[C@@H]2CN(C(=O)[C@@H]3CCc4[nH]nnc4C3)C[C@H]2C1` [Example 19.26, 1-[(3aR,6aR)-5-[(5R)-4,5,6,7-tetrahydro-1H-benzotriazole-5-carbonyl]-1,3,3a,4,6,6a-hexahydropyrrolo[3,4-c]pyrrol-2-yl]-3-[2-fluoro-4-(trifluoromethoxy)phenyl]propan-1-one] had an IC50 of 5 nM.

For the compound `N#Cc1ccc(/C=C/C(=O)N2C[C@H]3CCN(C(=O)c4ccc5[nH]nnc5c4)C[C@@H]3C2)cc1` (single isomer, unassigned) [Example 15.33], the concentration for half-maximal inhibition (IC50) amounted to 328 nM.

In turn, `COCCOc1ncc(C(=O)N2C[C@@H]3CN(C(=O)c4ccc5[nH]nnc5c4)C[C@H]3C2)cc1Br` [Example 19.40, ((3aS,6aS)-5-(1H-benzo[d][1,2,3]triazole-5-carbonyl)hexahydropyrrolo[3,4-c]pyrrol-2(1H)-yl)(5-bromo-6-(2-methoxyethoxy)pyridin-3-yl)methanone] had a half-maximal inhibitory concentration (IC50) of 100 nM. Compared with the last compound, the IC50 is about 3.3-fold lower.

With `O=C(OCc1ccc(OCC(F)(F)F)cc1F)N1CC[C@@H]2CN(C(=O)c3ccc4[nH]nnc4c3)C[C@@H]2CC1` [Example 1.47, (3aS,8aR)-2-(1H-benzotriazole-5-carbonyl)-octahydro-pyrrolo[3,4-d]azepine-6-carboxylic acid 2-fluoro-4-(2,2,2-trifluoro-ethoxy)-benzyl ester], inhibition was half-maximal at 2 nM (IC50).

In turn, `O=C(/C=C/c1ccc(OC(F)(F)F)cc1)N1CC[C@@H]2CN(C(=O)[C@@H]3CCc4[nH]nnc4C3)C[C@@H]2CC1` [Example 1.21, (E)-1-[(3aS,8aR)-2-((R)-4,5,6,7-tetrahydro-1H-benzotriazole-5-carbonyl)-octahydro-pyrrolo[3,4-d]azepin-6-yl]-3-(4-trifluoromethoxy-phenyl)-prop-2-en-1-one] registered a half-maximal inhibitory concentration (IC50) of 5 nM. This IC50 lies about 2.5-fold higher than the previous one.

The compound `O=C(/C=C/c1ccc(Cl)cc1F)N1C[C@@H]2CN(C(=O)c3ccc4[nH]nnc4c3)C[C@H]2C1` [Example 15.41] registered an IC50 of 17 nM.

Consider `O=C(c1ccc2[nH]nnc2c1)N1C[C@H]2CN(C(=O)[C@H]3CC[C@H](c4ccc(Cl)cc4)CC3)C[C@@H]2C1` [Example 19.17, [(3aR,6aR)-5-(1H-benzotriazole-5-carbonyl)-hexahydro-pyrrolo[3,4-c]pyrrol-2-yl]-[trans-4-(4-chloro-phenyl)-cyclohexyl]-methanone], for which the half-inhibitory concentration (IC50) was found to be 10 nM.

Regarding `O=C(/C=C/c1ccc(OC(F)(F)F)cc1)N1C[C@H]2CCN(C(=O)c3ccc4[nH]nnc4c3)CC[C@H]2C1` [Example 15.10], half-maximal inhibition (IC50) required 34 nM.

Compound `CC1C(COC(=O)N2C[C@@H]3CN(C(=O)c4ccc5[nH]nnc5c4)C[C@@H]3C2)[C@H]2CC[C@@H]1C2` (stereo partly drawn) [Example 4.31, (3aS,6aR)-5-(1H-benzotriazole-5-carbonyl)-hexahydro-pyrrolo[3,4-c]pyrrole-2-carboxylic acid (1S,4R)-3-methyl-bicyclo[2.2.1]hept-2-ylmethyl ester] came in with an IC50 of 1820 nM.

`CC(=O)c1ccccc1OCC(=O)N1C[C@@H]2CN(C(=O)c3ccc4[nH]nnc4c3)C[C@H]2C1` [Example 19.04, 2-(2-acetyl-phenoxy)-1-[(3aS,6aS)-5-(1H-benzotriazole-5-carbonyl)-hexahydro-pyrrolo[3,4-c]pyrrol-2-yl]-ethanone] gave an IC50 of 1710 nM.

`O=C(OCc1ccc(C(F)(F)F)cc1C1CC1)N1CC[C@@H]2CN(C(=O)c3ccc4[nH]nnc4c3)C[C@H]2C1` (relative stereo) [Example 1.31, trans-2-(1H-benzotriazole-5-carbonyl)-octahydro-pyrrolo[3,4-c]pyridine-5-carboxylic acid 2-cyclopropyl-4-trifluoromethyl-benzyl ester] gave an IC50 of 21 nM. This IC50 is about 81-fold lower than that of the compound before.

Consider `CS(=O)(=O)c1cc(Cl)cc(COC(=O)N2CC[C@@H]3CN(C(=O)c4ccc5[nH]nnc5c4)C[C@H]3C2)c1` (relative stereo) [Example 1.23, trans-2-(1H-benzotriazole-5-carbonyl)-octahydro-pyrrolo[3,4-c]pyridine-5-carboxylic acid 3-chloro-5-methanesulfonyl-benzyl ester], for which 58 nM corresponded to half-maximal inhibition (IC50).

The compound `O=C(c1ccc2[nH]nnc2c1)N1C[C@H]2CN(C(=O)c3cc4ccc(OC(F)(F)F)cc4[nH]3)C[C@@H]2C1` [Example 15.98] returned a half-maximal inhibitory concentration (IC50) of 13 nM.

`O=C(OCc1cc(Cl)cc(Cl)c1)N1C[C@H]2C[C@@H](Nc3ccc4[nH]c(=O)oc4c3)C[C@H]2C1` [Example 5, (3aR,5r,6aS)-3,5-Dichlorobenzyl 5-(2-oxo-2,3-dihydrobenzo[d]oxazol-6-ylamino)hexahydrocyclopenta[c]pyrrole-2(1H)-carboxylate] registered a half-maximal inhibitory concentration (IC50) of 248 nM.

`O=C(/C=C/c1ccc(OC(F)(F)F)cc1)N1C[C@@H]2CN(C(=O)c3ccc4[nH]nnc4c3)C[C@H]2C1` [Example 15.24] yielded an IC50 of 10 nM.
